{"source": "patent US20080175902A1", "about": "“Methods for slowing the progression of multiple sclerosis” (University of Plymouth, priority 2006, published 2008)", "key": {"patients with MS": {"system": "patients with MS", "conditions": "4 week period, oral; cited from earlier work"}, "[1]": {"system": "patients with multiple sclerosis", "assay": "Rivermead Mobility Index (RMI), 52 week follow up", "format": "in vivo, human", "conditions": "FIG. 6", "source_text": "(§1) In order to reduce the potential for unmasking bias from treatment side effects, two study personnel were used at each centre. A treating physician monitored the dosage, side effects, and patient wellbeing, while an assessor (usually a physiotherapist) measured the Ashworth score, timed 10 metre walk, and Rivermead Mobility Index (RMI). […] Assessors remained blinded to any discussion of dosage or side effects, and when evaluating patients' spasticity, were instructed not to have access to their assessment scores from previous visits. […]\n(§2) Times taken to complete a 10 metre walk were analysed using the Kruskal-Wallis test, and non-parametric methods were used to produce confidence intervals for the median. The RMI, UKNDS, postal BI, and GHQ-30 were each analysed using non-parametric analysis of variance to compare the groups. EDSS scores were analysed using Fisher's exact test. Category rating scales were analysed using contingency table analysis. […]"}, "[2]": {"system": "patients with multiple sclerosis", "assay": "Timed 10 metre walk / ability to walk, 52 week follow up", "format": "in vivo, human", "conditions": "end of 52 week study", "source_text": "as §1, §2"}, "[3]": {"system": "multiple sclerosis patients", "conditions": "15 week trial; cited from earlier work"}, "[4]": {"system": "patients with multiple sclerosis", "assay": "Adverse events reported by patients, 15 week study"}, "[5]": {"system": "patients with multiple sclerosis", "assay": "Patient assessment of treatment benefit at visit 8", "format": "in vivo, human", "conditions": "patient assessment at visit 8", "source_text": "At visit 8 in the study described in Examples 1 and 2, patients were asked uestions about whether treatment had improved pain, tremor, spasticity, or ymptoms. […] Overall, more patients perceived an improvement in spasticity and pain when taking the active treatments than when taking placebo. Difference in perception of improvement in tremor was not statistically significant and no treatment effect on bladder symptoms was identified. Although there was no stratification for these specific symptoms between groups, the groups were broadly balanced for these symptoms apart from bladder symptoms, where there were fewer patients with urinary symptoms in the group taking, delta-9-THC."}, "[6]": {"system": "patients with multiple sclerosis", "assay": "Category rating scales, 52 week follow up", "format": "in vivo, human", "conditions": "category rating scale, 52 week follow up study", "source_text": "In order to reduce the potential for unmasking bias from treatment side effects, two study personnel were used at each centre. A treating physician monitored the dosage, side effects, and patient wellbeing, while an assessor (usually a physiotherapist) measured the Ashworth score, timed 10 metre walk, and Rivermead Mobility Index (RMI). […] Assessors remained blinded to any discussion of dosage or side effects, and when evaluating patients' spasticity, were instructed not to have access to their assessment scores from previous visits. Self completion booklets containing the General Health Questionnaire-30 (GHQ-30), category rating scales (asking patients to assess any change in their symptoms at that point in the study compared with how they were before they started medication, and measuring irritability, depression, tiredness, muscle stiffness, tremor, pain, sleep, muscle spasms, and energy levels), the UK Neurological Disability Scale (UKNDS), and the Barthel Index (BI) were sent to participants just prior to week 27 and week 52. The Expanded Disability Status Scale (EDSS) was used at week 52.\nTimes taken to complete a 10 metre walk were analysed using the Kruskal-Wallis test, and non-parametric methods were used to produce confidence intervals for the median. The RMI, UKNDS, postal BI, and GHQ-30 were each analysed using non-parametric analysis of variance to compare the groups. EDSS scores were analysed using Fisher's exact test. Category rating scales were analysed using contingency table analysis. Comparison was made between patients choosing to continue on medication and those who chose to discontinue, by baseline Ashworth scores, RMI, EDSS, age, weight, ambulatory status, type of disease, sex, and use of urinary catheter. No adjustments were made for multiple comparisons."}}, "data": [{"smiles": "CCCCCc1cc(O)c2c(c1)OC(C)(C)[C@@H]1CCC(C)=C[C@@H]21", "note": "(relative stereo) [delta-9-THC, Delta-9-Tetrahydrocannabinol]", "values": [{"measurement": "changes in Ashworth scores", "setting": "patients with MS", "value": "no significant changes"}, {"measurement": "treatment effect on Rivermead Mobility Index", "setting": "[1]", "value": "Suggestion of treatment effect"}, {"measurement": "proportion of patients unable to walk at the end of the study who could walk at baseline", "setting": "[2]", "value": 6, "unit": "%"}, {"measurement": "slowing of progression of MS", "setting": "[3]", "value": "did not yield results indicating that cannabinoids including dronabinol slowed progression of MS"}, {"measurement": "Adverse event: Blocked/insertion of suprapubic catheter (number)", "setting": "[4]", "value": 0}, {"measurement": "Adverse event: Constipation (number)", "setting": "[4]", "value": 0}, {"measurement": "Adverse event: Grand mal seizure (number)", "setting": "[4]", "value": 0}, {"measurement": "Adverse event: MS relapse or possible relapse (number)", "setting": "[4]", "value": 1}, {"measurement": "Adverse event: Other (number)", "setting": "[4]", "value": 11}, {"measurement": "Adverse event: Pneumonia (number)", "setting": "[4]", "value": 2}, {"measurement": "Adverse event: Urinary tract infection (number)", "setting": "[4]", "value": 3}, {"measurement": "Bladder symptom improvement: No, % of patients", "setting": "[5]", "value": 59, "unit": "%"}, {"measurement": "Bladder symptom improvement: No, number of patients", "setting": "[5]", "value": 97}, {"measurement": "Bladder symptom improvement: Yes, % of patients", "setting": "[5]", "value": 40, "unit": "%"}, {"measurement": "Bladder symptom improvement: Yes, number of patients", "setting": "[5]", "value": 67}, {"measurement": "Pain improvement: No, % of patients", "setting": "[5]", "value": 50, "unit": "%"}, {"measurement": "Pain improvement: No, number of patients", "setting": "[5]", "value": 64}, {"measurement": "Pain improvement: Yes, % of patients", "setting": "[5]", "value": 50, "unit": "%"}, {"measurement": "Pain improvement: Yes, number of patients", "setting": "[5]", "value": 64}, {"measurement": "Spasticity improvement: No, % of patients", "setting": "[5]", "value": 40, "unit": "%"}, {"measurement": "Spasticity improvement: No, number of patients", "setting": "[5]", "value": 73}, {"measurement": "Spasticity improvement: Yes, % of patients", "setting": "[5]", "value": 60, "unit": "%"}, {"measurement": "Spasticity improvement: Yes, number of patients", "setting": "[5]", "value": 108}, {"measurement": "Tremor improvement: No, % of patients", "setting": "[5]", "value": 60, "unit": "%"}, {"measurement": "Tremor improvement: No, number of patients", "setting": "[5]", "value": 67}, {"measurement": "Tremor improvement: Yes, % of patients", "setting": "[5]", "value": 40, "unit": "%"}, {"measurement": "Tremor improvement: Yes, number of patients", "setting": "[5]", "value": 44}, {"measurement": "Depression: Deterioration, %", "setting": "[6]", "value": "17 (17) %"}, {"measurement": "Depression: Improvement, %", "setting": "[6]", "value": 26, "unit": "%"}, {"measurement": "Depression: Same, %", "setting": "[6]", "value": 57, "unit": "%"}, {"measurement": "Energy: Deterioration, %", "setting": "[6]", "value": 20, "unit": "%"}, {"measurement": "Energy: Improvement, %", "setting": "[6]", "value": 24, "unit": "%"}, {"measurement": "Energy: Same, %", "setting": "[6]", "value": 56, "unit": "%"}, {"measurement": "Irritability: Deterioration, %", "setting": "[6]", "value": "15 (15) %"}, {"measurement": "Irritability: Improvement, %", "setting": "[6]", "value": 30, "unit": "%"}, {"measurement": "Irritability: Same, %", "setting": "[6]", "value": 55, "unit": "%"}, {"measurement": "Pain: Deterioration, %", "setting": "[6]", "value": 16, "unit": "%"}, {"measurement": "Pain: Improvement, %", "setting": "[6]", "value": 28, "unit": "%"}, {"measurement": "Pain: Same, %", "setting": "[6]", "value": 56, "unit": "%"}, {"measurement": "Shaking: Deterioration, %", "setting": "[6]", "value": "19 (19) %"}, {"measurement": "Shaking: Improvement, %", "setting": "[6]", "value": 26, "unit": "%"}, {"measurement": "Shaking: Same, %", "setting": "[6]", "value": 55, "unit": "%"}, {"measurement": "Sleep: Deterioration, %", "setting": "[6]", "value": 12, "unit": "%"}, {"measurement": "Sleep: Improvement, %", "setting": "[6]", "value": 34, "unit": "%"}, {"measurement": "Sleep: Same, %", "setting": "[6]", "value": 54, "unit": "%"}, {"measurement": "Spasms: Deterioration, %", "setting": "[6]", "value": 25, "unit": "%"}, {"measurement": "Spasms: Improvement, %", "setting": "[6]", "value": 29, "unit": "%"}, {"measurement": "Spasms: Same, %", "setting": "[6]", "value": 46, "unit": "%"}, {"measurement": "Spasticity: Deterioration, %", "setting": "[6]", "value": 33, "unit": "%"}, {"measurement": "Spasticity: Improvement, %", "setting": "[6]", "value": 33, "unit": "%"}, {"measurement": "Spasticity: Same, %", "setting": "[6]", "value": 34, "unit": "%"}, {"measurement": "Tiredness: Deterioration, %", "setting": "[6]", "value": 21, "unit": "%"}, {"measurement": "Tiredness: Improvement, %", "setting": "[6]", "value": 25, "unit": "%"}, {"measurement": "Tiredness: Same, %", "setting": "[6]", "value": 54, "unit": "%"}]}]}
